Source: US20250026778A1 (TIUMBIO CO., LTD., priority 2021, published 2025)
Like-named read-outs stand apart in the source and are kept apart here.

Biological target: T1, his-galectin-3 (Homo sapiens, UniProt P17931)
T1 construct: purchased Abcam
Assay: TR-FRET assay (in vitro galectin-3 binding inhibitory activity test)
Details: compound at 20 μM, 60 nM his-galectin-3, 15 nM biotin-ASF
In short: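 Compound is premixed with his-galectin-3 (60 nM final), then biotin-ASF (15 nM), Tb anti-His antibody (2 nM) and streptavidin-d2 (20 nM) are added. After at least 3.5 hours at RT in HEPES/NaCl buffer with Tween 20 and BSA, TR-FRET is read at 615/665 nm. DMSO serves as the uninhibited control, ASF omission as background.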

[1] = Table 2, read-out: % Inhibitory activity (at 20 μM)
[2] = Table 3, found values, read-out: % Inhibitory activity (at 20 μM)
[3] = read-out: % Inhibitory activity (at 20 μM), Table 2

T1 sequence (P17931 whole entry): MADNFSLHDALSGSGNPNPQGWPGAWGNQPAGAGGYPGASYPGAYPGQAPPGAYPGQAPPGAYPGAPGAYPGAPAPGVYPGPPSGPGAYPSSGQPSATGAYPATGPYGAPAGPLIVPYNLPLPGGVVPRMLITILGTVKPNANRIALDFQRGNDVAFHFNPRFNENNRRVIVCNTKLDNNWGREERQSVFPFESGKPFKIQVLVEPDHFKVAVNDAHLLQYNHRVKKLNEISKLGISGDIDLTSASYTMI

SMILES | inhibition at 20 µM [1] [%] | inhibition at 20 µM [2] [%] | inhibition at 20 µM [3] [%]
O=C(N[C@@H]1CCO[C@]12O[C@H](CO)[C@H](O)[C@H](n1cc(-c3cc(F)c(F)c(F)c3)nn1)[C@H]2O)c1cccc(-c2cccc(F)c2)c1 [Compound A165, N-((4R,5S,7R,8R,9S,10R)-8,10-dihydroxy-7-(hydroxymethyl)-9-(4-(3,4,5-trifluorophenyl)-1H-1,2,3-triazol-1-yl)-1,6-dioxaspiro[4.5]decan-4-yl)-3′-fluoro-[1,1′-biphenyl]-3-carboxamide] | 50 to 75 |  | 
O=C(N[C@@H]1CCO[C@]12O[C@H](CO)[C@H](O)[C@H](n1cc(-c3cc(F)c(F)c(F)c3)nn1)[C@H]2O)c1cccc(-c2cccc(Cl)c2)c1 [Compound A166, 3′-chloro-N-((4R,5S,7R,8R,9S,10R)-8,10-dihydroxy-7-(hydroxymethyl)-9-(4-(3,4,5-trifluorophenyl)-1H-1,2,3-triazol-1-yl)-1,6-dioxaspiro[4.5]decan-4-yl)-[1.1′-biphenyl]-3-carboxamide] | 50 to 75 |  | 
O=C(N[C@@H]1CCO[C@]12O[C@H](CO)[C@H](O)[C@H](n1cc(-c3cc(F)c(F)c(F)c3)nn1)[C@H]2O)c1cccc2c(Cl)cccc12 [Compound A169, 5-chloro-N-((4R,5S,7R,8R,9S,10R)-8,10-dihydroxy-7-(hydroxymethyl)-9-(4-(3,4,5-trifluorophenyl)-1H-1,2,3-triazol-1-yl)-1,6-dioxaspiro[4.5]decan-4-yl)-1-naphthamide] | > 75 |  | 
O=C(N[C@@H]1CCO[C@]12O[C@H](CO)[C@H](O)[C@H](n1cc(-c3cc(F)c(F)c(F)c3)nn1)[C@H]2O)c1ccc(F)c2ccccc12 [Compound A170, N-((4R,5S,7R,8R,9S,10R)-8,10-dihydroxy-7-(hydroxymethyl)-9-(4-(3,4,5-trifluorophenyl)-1H-1,2,3-triazol-1-yl)-1,6-dioxaspiro[4.5]decan-4-yl)-4-difluoro-1-naphthamide] | > 75 | 85.3 | 
O=C(N[C@@H]1CCO[C@]12O[C@H](CO)[C@H](O)[C@H](n1cc(-c3cc(F)c(F)c(F)c3)nn1)[C@H]2O)c1ccccc1Oc1ccccc1 [Compound A171, N-((4R,5S,7R,8R,9S,10R)-8,10-dihydroxy-7-(hydroxymethyl)-9-(4-(3,4,5-trifluorophenyl)-1H-1,2,3-triazol-1-yl)-1,6-dioxaspiro[4.5]decan-4-yl)-2-phenoxybenzamide] |  |  | 25 to 50
O=C(N[C@@H]1CCO[C@]12O[C@H](CO)[C@H](O)[C@H](n1cc(-c3cc(F)c(F)c(F)c3)nn1)[C@H]2O)c1ccc(Cl)c2ccccc12 [Compound A172, 4-chloro-N-((4R,5S,7R,8R,9S,10R)-8,10-dihydroxy-7-(hydroxymethyl)-9-(4-(3,4,5-trifluorophenyl)-1H-1,2,3-triazol-1-yl)-1,6-dioxaspiro[4.5]decan-4-yl)-1-naphthamide] | > 75 |  | 
O=C(N[C@@H]1CCO[C@]12O[C@H](CO)[C@H](O)[C@H](n1cc(-c3cc(F)c(F)c(F)c3)nn1)[C@H]2O)c1ccc2cc(Cl)ccc2c1 [Compound A173, 6-chloro-N-((4R,5S,7R,8R,9S,10R)-8,10-dihydroxy-7-(hydroxymethyl)-9-(4-(3,4,5-trifluorophenyl)-1H-1,2,3-triazol-1-yl)-1,6-dioxaspiro[4.5]decan-4-yl)-2-naphthamide] | 25 to 50 |  | 
O=C(N[C@@H]1CCO[C@]12O[C@H](CO)[C@H](O)[C@H](n1cc(-c3cc(F)c(F)c(F)c3)nn1)[C@H]2O)c1ccc(Br)c2ccccc12 [Compound A176, 4-bromo-N-((4R,5S,7R,8R,9S,10R)-8,10-dihydroxy-7-(hydroxymethyl)-9-(4-(3,4,5-trifluorophenyl)-1H-1,2,3-triazol-1-yl)-1,6-dioxaspiro[4.5]decan-4-yl)-1-naphthamide] | > 75 |  | 
O=C(N[C@@H]1CCO[C@]12O[C@H](CO)[C@H](O)[C@H](n1cc(-c3cc(F)c(F)c(F)c3)nn1)[C@H]2O)c1csc2ccc(Cl)cc12 [Compound A177, 5-chloro-N-((4R,5S,7R,8R,9S,10R)-8,10-dihydroxy-7-(hydroxymethyl)-9-(4-(3,4,5-trifluorophenyl)-1H-1,2,3-triazol-1-yl)-1,6-dioxaspiro[4.5]decan-4-yl)benzo[b]thiophene-3-carboxamide] | > 75 |  | 
O=C(N[C@@H]1CCO[C@]12O[C@H](CO)[C@H](O)[C@H](n1cc(-c3cc(F)c(F)c(F)c3)nn1)[C@H]2O)c1cc(Br)cc2ccccc12 [Compound A178, 3-bromo-N-((4R,5S,7R,8R,9S,10R)-8,10-dihydroxy-7-(hydroxymethyl)-9-(4-(3,4,5-trifluorophenyl)-1H-1,2,3-triazol-1-yl)-1,6-dioxaspiro[4.5]decan-4-yl)-1-naphthamide] | > 75 |  | 
O=C(N[C@@H]1CCO[C@]12O[C@H](CO)[C@H](O)[C@H](n1cc(-c3cc(F)c(F)c(F)c3)nn1)[C@H]2O)c1cccc(-c2ccccc2Br)c1 [Compound A179, 2′-bromo-N-((4R,5S,7R,8R,9S,10R)-8,10-dihydroxy-7-(hydroxymethyl)-9-(4-(3,4,5-trifluorophenyl)-1H-1,2,3-triazol-1-yl)-1,6-dioxaspiro[4.5]decan-4-yl)-[1,1′-biphenyl]-3-carboxamide] | 50 to 75 |  | 
O=C(Cc1ccccc1)N1CCC[C@]2(C1)O[C@H](CO)[C@H](O)[C@H](n1cc(-c3cc(F)c(F)c(F)c3)nn1)[C@H]2O [Compound A184, 1-((2R,3R,4S,5R,6R)-3,5-dihydroxy-2-(hydroxymethyl)-4-(4-(3,4,5-trifluorophenyl)-1H-1,2,3-triazol-1-yl)-1-oxa-8-azaspiro[5.5]undecan-8-yl)-2-phenylethanone] |  |  | < 25

Further lines, with some results ahead:

inhibition at 20 µM [1] [%] | inhibition at 20 µM [2] [%] | SMILES | inhibition at 20 µM [3] [%]
> 75 |  | O=C(N[C@@H]1CCO[C@]12O[C@H](CO)[C@H](O)[C@H](n1cc(-c3cc(F)c(F)c(F)c3)nn1)[C@H]2O)c1coc2ccc(Br)cc12 [Compound A180, 5-bromo-N-((4R,5S,7R,8R,9S,10R)-8,10-dihydroxy-7-(hydroxymethyl)-9-(4-(3,4,5-trifluorophenyl)-1H-1,2,3-triazol-1-yl)-1,6-dioxaspiro[4.5]decan-4-yl)benzofuran-3-carboxamide] | 
> 75 |  | O=C(N[C@@H]1CCO[C@]12O[C@H](CO)[C@H](O)[C@H](n1cc(-c3cc(F)c(F)c(F)c3)nn1)[C@H]2O)c1sc2ccccc2c1Br [Compound A181, 3-bromo-N-((4R,5S,7R,8R,9S,10R)-8,10-dihydroxy-7-(hydroxymethyl)-9-(4-(3,4,5-trifluorophenyl)-1H-1,2,3-triazol-1-yl)-1,6-dioxaspiro[4.5]decan-4-yl)benzo[b]thiophene-2-carboxamide] | 
50 to 75 | 73 | O=C(N[C@@H]1CCO[C@]12O[C@H](CO)[C@H](O)[C@H](n1cc(-c3cc(F)c(F)c(F)c3)nn1)[C@H]2O)c1nsc2ccccc12 [Compound A182, N-((4R,5S,7R,8R,9S,10R)-8,10-dihydroxy-7-(hydroxymethyl)-9-(4-(3,4,5-trifluorophenyl)-1H-1,2,3-triazol-1-yl)-1,6-dioxaspiro[4.5]decan-4-yl)benzo[d]isothiazole-3-carboxamide] | 
< 25 |  | O=C(Cc1cccc(Oc2ccccc2)c1)N[C@@H]1CCO[C@]12O[C@H](CO)[C@H](O)[C@H](n1cc(-c3cc(F)c(F)c(F)c3)nn1)[C@H]2O [Compound A183, N-((4R,5S,7R,8R,9S,10R)-8,10-dihydroxy-7-(hydroxymethyl)-9-(4-(3,4,5-trifluorophenyl)-1H-1,2,3-triazol-1-yl)-1,6-dioxaspiro[4.5]decan-4-yl)-2-(3-phenoxyphenyl)acetamide] | 
< 25 |  | O=C(c1cccc2ccccc12)N1CCC[C@]2(C1)O[C@H](CO)[C@H](O)[C@H](n1cc(-c3cc(F)c(F)c(F)c3)nn1)[C@H]2O [Compound A185, ((2R,3R,4S,5R,6R)-3,5-dihydroxy-2-(hydroxymethyl)-4-(4-(3,4,5-trifluorophenyl)-1H-1,2,3-triazol-1-yl)-1-oxa-8-azaspiro[5.5]undecan-8-yl)(naphthalen-1-yl)methanone] | 
< 25 |  | O=C(c1ccc2ccccc2c1)N1CCC[C@]2(C1)O[C@H](CO)[C@H](O)[C@H](n1cc(-c3cc(F)c(F)c(F)c3)nn1)[C@H]2O [Compound A186, ((2R,3R,4S,5R,6R)-3,5-dihydroxy-2-(hydroxymethyl)-4-(4-(3,4,5-trifluorophenyl)-1H-1,2,3-triazol-1-yl)-1-oxa-8-azaspiro[5.5]undecan-8-yl)(naphthalen-2-yl)methanone] | 
< 25 |  | O=C(c1cc2ccccc2s1)N1CCC[C@]2(C1)O[C@H](CO)[C@H](O)[C@H](n1cc(-c3cc(F)c(F)c(F)c3)nn1)[C@H]2O [Compound A187, benzo[b]thiophen-2-yl((2R,3R,4S,5R,6R)-3,5-dihydroxy-2-(hydroxymethyl)-4-(4-(3,4,5-trifluorophenyl)-1H-1,2,3-triazol-1-yl)-1-oxa-8-azaspiro[5.5]undecan-8-yl)methanone] | 
< 25 |  | O=C(c1ccccn1)N1CCC[C@]2(C1)O[C@H](CO)[C@H](O)[C@H](n1cc(-c3cc(F)c(F)c(F)c3)nn1)[C@H]2O [Compound A188, ((2R,3R,4S,5R,6R)-3,5-dihydroxy-2-(hydroxymethyl)-4-(4-(3,4,5-trifluorophenyl)-1H-1,2,3-triazol-1-yl)-1-oxa-8-azaspiro[5.5]undecan-8-yl)(pyridin-2-yl)methanone] | 
< 25 |  | O=C(c1ccncc1)N1CCC[C@]2(C1)O[C@H](CO)[C@H](O)[C@H](n1cc(-c3cc(F)c(F)c(F)c3)nn1)[C@H]2O [Compound A189, ((2R,3R,4S,5R,6R)-3,5-dihydroxy-2-(hydroxymethyl)-4-(4-(3,4,5-trifluorophenyl)-1H-1,2,3-triazol-1-yl)-1-oxa-8-azaspiro[5.5]undecan-8-yl)(pyridin-4-yl)methanone] | 
